Assay results as given in US20250059205A1, “Heterocyclic Compounds and Methods of Use” (AMGEN INC., priority 2021, published 2025).

Legend:
[1] = test system: Phosphorylation of ERK1/2 in A-427 cells; experiment: Phospho-ERK1/2 MSD Assay (A-427 cells); type: cell-based; conditions: Homo sapiens, A-427, 2 h, 2 h treatment, read-out: p-ERK (A427 cells) IC50
In short: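 ERK1/2 phosphorylation measured by Meso Scale whole-cell lysate assay after A-427 cells were exposed to a titration of compound for 2 h at 37 °C.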

[2] = test system: Phosphorylation of ERK1/2 in AsPC-1 cells; experiment: Phospho-ERK1/2 MSD Assay (AsPC-1 cells); type: cell-based; conditions: Homo sapiens, ASPC1, 2 h, 2 hours treatment, read-out: p-ERK (AsPC-1 cells) IC50
In short: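 Read-out: MSD electrochemiluminescent detection of phosphorylated ERK1/2 in whole-cell lysates, fitted to a 4-parameter logistic curve for IC50. Prior to lysis, AsPC-1 cells (25,000 per well) received a 2 h compound dose-response at 37 °C.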

[3] = biological target: GDP-bound KRAS protein (aa 1-169), containing both G12D and C118A amino acid substitutions (Homo sapiens, UniProt P01116, C118A/G12D); experiment: KRAS G12D Coupled Nucleotide Exchange Assay; type: biochemical; conditions: 2 h compound pre-incubation
Method: Following compound pre-incubation, purified SOS protein (aa 564-1049) and GTP (Roche 10106399001) were added to the assay wells and incubated for an additional 30 min. […] The assay plates were then read on a PerkinElmer EnVision Multilabel Reader, using AlphaScreen® technology, and data were analyzed using a 4-parameter logistic model to calculate IC50 values.

[4] = biological target: His-tagged KRAS G12D protein (Homo sapiens, UniProt P01116, G12D); experiment: KRAS G12D TR-FRET Assay; type: binding
Sequence of His-tagged KRAS G12D protein (P01116 1-188 isoform P01116-2 G12D): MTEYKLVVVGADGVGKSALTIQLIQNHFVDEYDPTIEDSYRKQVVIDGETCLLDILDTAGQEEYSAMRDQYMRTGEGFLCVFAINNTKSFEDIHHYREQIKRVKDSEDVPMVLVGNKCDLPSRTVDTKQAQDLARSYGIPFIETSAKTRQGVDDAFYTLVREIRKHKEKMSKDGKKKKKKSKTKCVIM

Sequence of GDP-bound KRAS protein (aa 1-169), containing both G12D and C118A amino acid substitutions (P01116 1-169 isoform P01116-2 G12D/C118A): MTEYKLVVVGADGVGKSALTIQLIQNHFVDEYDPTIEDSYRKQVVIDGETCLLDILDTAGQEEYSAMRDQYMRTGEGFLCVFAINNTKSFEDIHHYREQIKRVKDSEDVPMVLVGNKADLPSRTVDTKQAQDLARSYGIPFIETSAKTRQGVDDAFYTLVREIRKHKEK

Structure (SMILES) | IC50 [1] [nM] | IC50 [2] [nM] | Avg 2 h Coupled Exchange IC50 [3] [nM] | IC50 [4] [nM]
Cc1cccc(-c2c(F)cc3c(N4C[C@H]5CC[C@@H](C4)N5)nc(OC[C@@]45CCCN4C[C@H](F)C5)nc3c2F)c1C(F)(F)F [Example 149, 4-((1R,5S)-3,8-diazabicyclo[3.2.1]octan-3-yl)-6,8-difluoro-2-(((2R,7aS)-2-fluorotetrahydro-1H-pyrrolizin-7a(5H)-yl)methoxy)-7-(3-methyl-2-(trifluoromethyl)phenyl)quinazoline] | 939 | 680 | 2 | 5
CCc1c(F)ccc2cc(O)cc(-c3c(F)cc4c(N5[C@@H]6CC[C@H]5CNC6)nc(OC[C@@]56CCCN5C[C@H](F)C6)nc4c3F)c12 [Example 150, 4-(4-((1R,5S)-3,8-diazabicyclo[3.2.1]octan-8-yl)-6,8-difluoro-2-(((2R,7aS)-2-fluorotetrahydro-1H-pyrrolizin-7a(5H)-yl)methoxy)quinazolin-7-yl)-5-ethyl-6-fluoronaphthalen-2-ol] | 30 | 94 | 3 | 3
CCc1c(F)ccc2cc(O)cc(-c3c(F)cc4c(N5[C@@H]6CNC[C@H]5COC6)nc(OC[C@@]56CCCN5C[C@H](F)C6)nc4c3F)c12 [Example 151, 4-(4-((1R,5S)-3-oxa-7,9-diazabicyclo[3.3.1]nonan-9-yl)-6,8-difluoro-2-(((2R,7aS)-2-fluorotetrahydro-1H-pyrrolizin-7a(5H)-yl)methoxy)quinazolin-7-yl)-5-ethyl-6-fluoronaphthalen-2-ol] | 65 | 123 | 3 | 4
CCc1c(F)ccc2cc(O)cc(-c3ccc4c(N5[C@@H]6CNC[C@H]5COC6)nc(OC[C@@]56CCCN5C[C@H](F)C6)nc4c3F)c12 [Example 152, 4-(4-((1R,5S)-3-oxa-7,9-diazabicyclo[3.3.1]nonan-9-yl)-8-fluoro-2-(((2R,7aS)-2-fluorotetrahydro-1H-pyrrolizin-7a(5H)-yl)methoxy)quinazolin-7-yl)-5-ethyl-6-fluoronaphthalen-2-ol] | 73 | 76 | 4 | 5
CCc1c(F)ccc2cc(O)cc(-c3c(F)cc4c(N5CCC6CCC(C5)N6)nc(OC[C@@]56CCCN5C[C@H](F)C6)nc4c3F)c12 (stereo partly drawn) [Example 153, 4-(4-(3,9-diazabicyclo[4.2.1]nonan-3-yl)-6,8-difluoro-2-(((2R,7aS)-2-fluorotetrahydro-1H-pyrrolizin-7a(5H)-yl)methoxy)quinazolin-7-yl)-5-ethyl-6-fluoronaphthalen-2-ol] | 349 | 419 | 3 | 6
CCc1cccc2cc(O)cc(-c3ccc4c(N5CCC6CCC(C5)N6)nc(OC[C@@]56CCCN5C[C@H](F)C6)nc4c3F)c12 (stereo partly drawn) [Example 154, 4-(4-(3,9-diazabicyclo[4.2.1]nonan-3-yl)-8-fluoro-2-(((2R,7aS)-2-fluorotetrahydro-1H-pyrrolizin-7a(5H)-yl)methoxy)quinazolin-7-yl)-5-ethylnaphthalen-2-ol] | 879 | 1030 | 12 | 13
Fc1cc2c(N3C[C@H]4CC[C@@H](C3)N4)nc(OC[C@@]34CCCN3C[C@H](F)C4)nc2c(F)c1-c1cccc2ccc(F)c(F)c12 [Example 155, 4-((1R,5S)-3,8-diazabicyclo[3.2.1]octan-3-yl)-7-(7,8-difluoronaphthalen-1-yl)-6,8-difluoro-2-(((2R,7aS)-2-fluorotetrahydro-1H-pyrrolizin-7a(5H)-yl)methoxy) quinazoline] | 639 | 667 | 3 | 5
Fc1c(-c2cccc(Cl)c2C(F)(F)F)ccc2c(N3C[C@H]4CC[C@@H](C3)N4)nc(OC[C@@]34CCCN3C[C@H](F)C4)nc12 [Example 156, 4-((1R,5S)-3,8-diazabicyclo[3.2.1]octan-3-yl)-7-(3-chloro-2-(trifluoromethyl)phenyl)-8-fluoro-2-(((2R,7aS)-2-fluorotetrahydro-1H-pyrrolizin-7a(5H)-yl)methoxy) quinazoline] | 1180 | 881 | 3 | 7
Oc1cc(-c2c(F)cc3c(N4C[C@@H]5CC[C@H]4CN5)nc(OC[C@@]45CCCN4C[C@H](F)C5)nc3c2F)c2c(F)c(F)ccc2c1 [Example 157, 4-(4-((1S,4S)-2,5-diazabicyclo[2.2.2]octan-2-yl)-6,8-difluoro-2-(((2R,7aS)-2-fluorotetrahydro-1H-pyrrolizin-7a(5H)-yl)methoxy)quinazolin-7-yl)-5,6-difluoronaphthalen-2-ol] | 9 | 46 | 4 | 4
CCc1c(F)ccc2cc(O)cc(-c3c(F)cc4c(N5[C@@H]6CC[C@H]5CNC6)nc(OC[C@@H]5C[C@@H](F)CN5C)nc4c3F)c12 [Example 158, 4-(4-((1R,5S)-3,8-diazabicyclo[3.2.1]octan-8-yl)-6,8-difluoro-2-(((2S,4R)-4-fluoro-1-methylpyrrolidin-2-yl)methoxy)quinazolin-7-yl)-5-ethyl-6-fluoronaphthalen-2-ol] | 228 | 511 | 4 | 7
Oc1cc(-c2c(F)cc3c(N4C[C@H]5CC[C@@H](C4)N5)nc(OC[C@@]45CCCN4C[C@H](F)C5)nc3c2F)c2c(F)cccc2c1 [Example 159, 4-(4-((1R,5S)-3,8-diazabicyclo[3.2.1]octan-3-yl)-6,8-difluoro-2-(((2R,7aS)-2-fluorotetrahydro-1H-pyrrolizin-7a(5H)-yl)methoxy)quinazolin-7-yl)-5-fluoronaphthalen-2-ol] | 13 | 77 | 5 | 3
CCc1cccc2cc(O)cc(-c3ccc4c(N5[C@@H]6CC[C@H]5CNC6)nc(OC[C@@]56CCCN5C[C@H](F)C6)nc4c3C)c12 [Example 160, 4-(4-((1R,5S)-3,8-diazabicyclo[3.2.1]octan-8-yl)-2-(((2R,7aS)-2-fluorotetrahydro-1H-pyrrolizin-7a(5H)-yl)methoxy)-8-methylquinazolin-7-yl)-5-ethylnaphthalen-2-ol] | 410 | 754 | 6 | 5
CCc1c(F)ccc2cc(O)cc(-c3ccc4c(N5[C@@H]6CC[C@H]5CNC6)nc(OC[C@@]56CCCN5C[C@H](F)C6)nc4c3C)c12 [Example 161, 4-(4-((1R,5S)-3,8-diazabicyclo[3.2.1]octan-8-yl)-2-(((2R,7aS)-2-fluorotetrahydro-1H-pyrrolizin-7a(5H)-yl)methoxy)-8-methylquinazolin-7-yl)-5-ethyl-6-fluoronaphthalen-2-ol] | 10000 | 9750 | 79 | 75
Cc1ccc2cnn(C)c2c1-c1c(F)cc2c(N3C[C@H]4CC[C@@H](C3)N4)nc(OC[C@@]34CCCN3C[C@H](F)C4)nc2c1F [Example 164, 4-((1R,5S)-3,8-diazabicyclo[3.2.1]octan-3-yl)-7-(1,6-dimethyl-1H-indazol-7-yl)-6,8-difluoro-2-(((2R,7aS)-2-fluorotetrahydro-1H-pyrrolizin-7a(5H)-yl)methoxy) quinazoline] | 862 | 725 | 6 | 7
Cc1c(Cl)cc2cn[nH]c2c1-c1ccc2c(N3C[C@H]4CC[C@@H](C3)N4)nc(OC[C@@]34CCCN3C[C@H](F)C4)nc2c1F [Example 165, 4-((1R,5S)-3,8-diazabicyclo[3.2.1]octan-3-yl)-7-(5-chloro-6-methyl-1H-indazol-7-yl)-8-fluoro-2-(((2R,7aS)-2-fluorotetrahydro-1H-pyrrolizin-7a(5H)-yl)methoxy) quinazoline] | 4430 | 3280 | 11 | 27
Cc1c(-c2cc(O)cc3ccc(F)c(F)c23)ccc2c(N3C[C@@H]4CC[C@H]3CN4)nc(OC[C@@]34CCCN3C[C@H](F)C4)nc12 [Example 166, 4-(4-((1S,4S)-2,5-diazabicyclo[2.2.2]octan-2-yl)-2-(((2R,7aS)-2-fluorotetrahydro-1H-pyrrolizin-7a(5H)-yl)methoxy)-8-methylquinazolin-7-yl)-5,6-difluoronaphthalen-2-ol] | 4200 | 1530 | 82 | 94
CCc1cccc2cc(O)cc(-c3ccc4c(N5C[C@H]6CC[C@@H](C5)N6)nc(OC[C@@]56CCCN5C[C@H](F)C6)nc4c3C)c12 [Example 168, 4-(4-((1R,5S)-3,8-diazabicyclo[3.2.1]octan-3-yl)-2-(((2R,7aS)-2-fluorotetrahydro-1H-pyrrolizin-7a(5H)-yl)methoxy)-8-methylquinazolin-7-yl)-5-ethylnaphthalen-2-ol] | 78 | 243 | 8 | 4
